We go through five compounds from paper PMC8409973, “Synthesis, antiproliferative and antitrypanosomal activities, and DNA binding of novel 6-amidino-2-arylbenzothiazoles” (Journal of Enzyme Inhibition and Medicinal Chemistry, 2021).

In general, IC50 refers to the concentration that inhibits the measured activity by half. What is called IC90 is the point of the concentration-response curve where the effect stands at 90%. One may read the melting point as the temperature of the solid-liquid transition.

Entries after “also recorded” stand apart in the source; their conditions may differ. Read-outs that look alike come from different tables or passages of the source.

Series [1] deals with Bloodstream form T. b. brucei (strain 221). The settings on record: read-out: T. brucei IC50; reference drug; ref Wilkinson et al.[54]; cited from earlier work.
For series [2], the system named is SW620 (colorectal adenocarcinoma, metastatic). The series can be described thus: Proliferation assay (MTT, 72 h) on SW620. The settings on record: Homo sapiens, SW-620, SW620, 72 h. It is filed as cell-based. The procedure:
(§1) Human cell lines SW620 (colorectal adenocarcinoma, metastatic), MCF-7 (human breast adenocarcinoma), CFPAC-1 (pancreatic adenocarcinoma), HeLa (cervical carcinoma), and HFF-1 (human foreskin fibroblasts) were obtained from the American Type Culture Collection (ATCC). Cells were cultured in a humidified atmosphere at 37 °C with 5% CO2. As a growth medium, Dulbecco’s modified Eagle medium (DMEM) was used with the addition of foetal bovine serum (10%), L-glutamine (2 mM), and antibiotics: streptomycin ([…]) and penicillin (100 U/ml).
(§2) Cells were seeded onto 96-well microtiter plates at a seeding density of 3000 cells/well for carcinoma cell lines, and 5000 cells/well for normal human fibroblasts. The next day, cells were treated with test agents at five different concentrations (0.01–100 µM) and further incubated for 72 h. […] 5-Fluorouracil (5-FU, 0.384 M fluorouracilum, Pliva 500 mg/10 ml) dissolved in physiological solution was used as a positive control. Following 72 h incubation, the MTT assay was performed and measured absorbances were transformed into a percentage of cell growth as described previously. Results were obtained from three independent experiments. IC50 values were calculated using linear regression analysis (FORECAST option taking into account the concentration range of two experimental points above and below IC50).

Series [3] deals with CFPAC-1 (pancreatic adenocarcinoma). The series can be described thus: Proliferation assay (MTT, 72 h) on CFPAC-1. It is filed as cell-based. The settings on record: Homo sapiens, CFPAC-1, 72 h. The procedure: as §1, §2
Series [4] relates to MCF-7 (human breast adenocarcinoma). Put plainly: Proliferation assay (MTT, 72 h) on MCF-7. Conditions: MCF7, MCF-7, 72 h. In kind it is cell-based. The procedure: as §1, §2
For series [5], the system named is HeLa (cervical carcinoma). Put plainly: Proliferation assay (MTT, 72 h) on HeLa. It is filed as cell-based. Conditions: Homo sapiens. The procedure: as §1, §2
Series [6] relates to HFF-1 (human foreskin fibroblasts). The series can be described thus: Proliferation assay (MTT, 72 h) on normal fibroblasts HFF-1. In kind it is cell-based. The settings on record: HFF-1 normal fibroblasts. The procedure:
as §1, §2

The subject of series [7] is Bloodstream form T. b. brucei (strain 221). Put plainly: Antitrypanosomal screening (resazurin). In kind it is cell-based. Conditions: Trypanosoma brucei; for IC90: concentration that inhibited growth by 90%, mean ± SEM; for IC50: mean of triplicate ± SEM. The procedure:
Resazurin (20 μl at 0.125 mg ml^−1) was added after 48 h, the plates were incubated for a further 16 h, and then read in a Spectramax plate reader, and data analysed using GraphPad Prism. Each drug was tested in triplicate.
Background: The colour change of resazurin is a common sign of viable cells or microbes.

In series [8] the test system is L6 cells (a rat myoblast line). The series can be described thus: L6 cell proliferation (cytotoxicity, resazurin). It is filed as cell-based. Conditions: 144 h; rat myoblast L6, 6 days.
In another series the test system is calf thymus ctDNA. The series can be described thus: Fluorimetric titration with ctDNA. Conditions: for I/I0: fluorescence intensity of complex / starting intensity, ctDNA, pH 7.0; for LogKs: fluorescence titration with ctDNA, Scatchard, fixed n = 0.6, pH 7.0, sodium cacodylate I = 0.05 mol dm−3. It is filed as binding. The procedure: The calf thymus ctDNA was additionally sonicated and filtered through a […]. Polynucleotide concentration was determined spectroscopically[50]^,[51] as the concentration of phosphates. Fluorescence spectra were recorded on a Varian Cary Eclipse spectrophotometer at 25 °C using appropriate 1 cm path quartz cuvettes. […] In fluorimetric experiments, an excitation wavelength of λexc ≥300 nm was used to avoid the inner filter effect caused due to increasing absorbance of the polynucleotide. Emissions were determined in the range λem = 350–650 nm. Values for Ks were obtained by processing titration data using the Scatchard equation[52].

The test system of series [9] is ctDNA. The series can be described thus: Thermal denaturation of ctDNA. In kind it is binding, calf. Conditions: r = [compound]/[polynucleotide] = 0.3, pH 7.0; error ±0.5 °C. The procedure: (§3) These solutions were used for measurements in an aqueous buffer (pH = 7, sodium cacodylate buffer, I = 0.05 mol dm^−3). Polynucleotides were purchased as noted: poly (dAdT)2 and calf thymus ctDNA (Sigma-Aldrich). Polynucleotides were dissolved in Na-cacodylate buffer, I = 0.05 mol dm^−3, pH = 7. The calf thymus ctDNA was additionally sonicated and filtered through a […]. Polynucleotide concentration was determined spectroscopically[50]^,[51] as the concentration of phosphates.
(§4) The UV/Vis spectra were recorded on a Varian Cary 100 Bio spectrophotometer using 1 cm path quartz cuvettes. Calibration experiments were performed at 25 °C and pH = 7 (I = 0.05 mol dm^−3, sodium cacodylate buffer). Absorption maxima and corresponding molar extinction coefficients (ε) of benzothiazole derivatives are given in Table S1 (Supplementary material). Thermal melting curves for DNA and their complexes with studied compounds were determined as previously described by following the absorption change at 260 nm as a function of temperature. The absorbance of the ligands was subtracted from every curve and the absorbance scale was normalised. Tm values are the midpoints of the transition curves determined from the maximum of the first derivative and checked graphically by the tangent method. The ΔTm values were calculated by subtracting Tm of the free nucleic acid from Tm of the complex. Every ΔTm value reported here was the average of at least two measurements. The error in ΔTm is ±0.5 °C.

The test system of a further series is poly (dAdT)2. Put plainly: Thermal denaturation of p(dAdT)2. It is filed as binding. Conditions: r = [compound]/[polynucleotide] = 0.3, pH 7.0; error ±0.5 °C. The procedure: as §3, §4
The test system of series [10] is ctDNA. Put plainly: CD titration of ctDNA. In kind it is binding, calf. The settings on record: for induced CD (ICD) signal with ctDNA: CD titration, pH 7.0, λ > 300 nm; for binding mode to ctDNA: concluded from ICD, ΔTm and binding constants. The procedure: as §3
CD spectra were recorded on a JASCO J815 spectrophotometer in 1 cm path quartz cuvettes. CD parameters: range = 500–220 nm, data pitch = 2, standard sensitivity, scanning speed = 200 nm/min, accumulation = 3–5. Titrations were performed at 25 °C and pH = 7 (I = 0.05 mol dm^−3, sodium cacodylate buffer). CD experiments were done by adding portions of the compound stock solution into the polynucleotide solution.

Series [11] relates to WI-38 fibroblast cell line. Put plainly: Growth inhibition of WI-38 fibroblasts (control substance). In kind it is cell-based. The settings on record: Homo sapiens; WI-38 fibroblast cell line (footnote c).

As for `CC1CS(=O)(=O)CCN1/N=C/c1ccc([N+](=O)[O-])o1` (stereo not drawn) [Nifurtimox], the IC50 in series [1] was 2 ± 0.24 µM.
As to `CS(=O)(=O)O.Clc1ccc(-n2cc(-c3nc4ccc(C5=NCCCN5)cc4s3)nn2)cc1` [15b, 6-(3,4,5,6-Tetrahydropyrimidin-1-ium-2-yl)-2-[1-(4-chlorophenyl)-1H-1,2,3-triazole-4-yl]benzothiazole methanesulfonate], the melting point was 288 to 293 °C. Moreover, in [2], half-maximal inhibition (IC50) was put at 0.89 ± 0.31 µM. The compound further yielded an IC50 in [3] of 0.71 ± 0.17 µM. Inhibition in [4] was half-maximal at 2.1 ± 1.09 µM (IC50). Further, half-maximal inhibition in [5] (IC50) required 2.27 ± 0.08 µM. The IC50 in series [6] came to 0.74 ± 0.05 µM. In series [7], this compound gave an IC90 of 3.84 ± 0.65 µM and a concentration for half-maximal inhibition (IC50) of 1.12 ± 0.23 µM. This compound displayed an IC50 in series [8] of 7.69 ± 0.16 µM. In the series with calf thymus ctDNA, this compound showed an I/I0 of 0.35 and a LogKs of 5.4. In addition, the “ΔTm ctDNA” value with ctDNA [9] came to 0 °C. For the same compound, the “ΔTm p(dAdT)2” value in the series with poly (dAdT)2 stood at 5.4 °C. Also, in the series with ctDNA [10], the “induced CD (ICD) signal with ctDNA” value was “positive induced CD spectra” and the “binding mode to ctDNA” value is “minor groove binding mode”.
As for `CS(=O)(=O)O.Clc1ccc(-n2cc(COc3nc4ccc(C5=NCCN5)cc4s3)nn2)cc1` [11b, 6-(4,5-Dihydro-1H-imidazol-3-ium-2-yl)-2-{[1-(4-chlorophenyl)-1H-1,2,3-triazol-4-yl]methoxy}benzothiazole methanesulfonate], the melting point was in the range of 263 to 266 °C. The compound also came in with an IC50 in series [2] of 2.84 ± 0.19 µM. In series [3], this compound returned an IC50 of 3.09 ± 0.19 µM. Further, in series [4], it took 3.12 ± 0.36 µM to reach half-maximal inhibition (IC50). This compound also had an IC50 in series [5] of 2.61 ± 0.42 µM. The compound also returned an IC50 in series [6] of 0.17 ± 0.09 µM. Also, in series [7], it took 0.12 ± 0.03 µM to reach the 90% level (IC90) and the IC50 is 0.09 ± 0.02 µM. In [8], this compound registered an IC50 of under 2 µM. Besides, in the series with calf thymus ctDNA, the I/I0 worked out at 0.21 and the LogKs came to 6.6. For the same compound, the “ΔTm ctDNA” value with ctDNA [9] is 1.2 °C. Moreover, the “ΔTm p(dAdT)2” value in the series on poly (dAdT)2 amounted to 1.1 °C. Also, in the series with ctDNA [10], the “induced CD (ICD) signal with ctDNA” value is given as “small negative ICD signal” and the “binding mode to ctDNA” value is listed as “intercalation”.
For `O=c1[nH]cc(F)c(=O)[nH]1` [5-FU, 5-Fluorouracil, reference compound], the IC50 was 6.4 ± 0.22 µM in [2]; 6.45 ± 0.66 µM in series [3]; 0.09 ± 0.01 µM in [4]; 47.5 ± 1.93 µM in [5]; 0.94 µM in series [11].
On to `CS(=O)(=O)O.c1ccc(-n2cc(COc3nc4ccc(C5=NCCN5)cc4s3)nn2)cc1` [11a, 6-(4,5-Dihydro-1H-imidazol-3-ium-2-yl)-2-[(1-phenyl-1H-1,2,3-triazol-4-yl)methoxy] benzothiazole methanesulfonate], for which the melting point is 270 to 274 °C. Moreover, in series [2], inhibition was half-maximal at 0.46 ± 0.03 µM (IC50). Further, the IC50 in series [3] worked out at 0.45 ± 0.01 µM. This compound also registered an IC50 in [4] of 0.49 ± 0.01 µM. This compound also yielded an IC50 in [5] of 0.57 ± 0.19 µM. Further, in series [6], half-maximal inhibition (IC50) required 0.26 ± 0.02 µM. In series [7], this compound showed an IC90 of 0.28 ± 0.03 µM and an IC50 of 0.23 ± 0.02 µM. Besides, the IC50 in series [8] is under 0.2 µM. In the series with calf thymus ctDNA, this compound displayed an I/I0 of 0.18 and a LogKs of 6.8. Besides, in the series with ctDNA [9], the “ΔTm ctDNA” value is 2.1 °C. The “ΔTm p(dAdT)2” value in the series on poly (dAdT)2 amounted to 4.1 °C. For the same compound, in the series with ctDNA [10], the “induced CD (ICD) signal with ctDNA” value was “bisignate signal with maxima at 317 and 360 nm”; the “binding mode to ctDNA” value is “dimer within the minor groove; also recorded: minor groove binding”.
